Data reported in PubChem BioAssay AID330 (DTP/NCI, 2004).
“And” between values parts separate entries of the source, which are not always exact repeats. Equal values may be shown once. Toxic doses and inconclusive results are not listed. Rule for the calls: active = survival T/C of 150% or more; inactive = T/C below 125% in these data.

System: P388 leukemia ip, CD2F1 mice, survival T/C
Assay: NCI In Vivo Anticancer Drug Screen. Data for tumor model P388 Leukemia (intraperitoneal) in CD2F1 (CDF1) mice
Details: endpoint: median survival time, higher = longer survival
Procedure, shortened: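 Mice carrying the transplanted tumor received test compound or vehicle. Survival was recorded in each group, and the value is the treated-group measurement divided by that of the vehicle-treated control group.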

[1] = dose: 50.0 mg/kg/injection, schedule: Q01DX005 (ip), vehicle: saline
[2] = dose: 100.0 mg/kg/injection, schedule: Q01DX005 (ip), vehicle: saline
[3] = dose: 200.0 mg/kg/injection, schedule: Q01DX005 (ip), vehicle: saline
[4] = dose: 100.0 mg/kg/injection, schedule: Q01DX001 (ip), vehicle: Klucel (hydroxypropylcellulose) (HPC)
[5] = dose: 200.0 mg/kg/injection, schedule: Q01DX001 (ip), vehicle: Klucel (hydroxypropylcellulose) (HPC)
[6] = dose: 400.0 mg/kg/injection, schedule: Q01DX001 (ip), vehicle: Klucel (hydroxypropylcellulose) (HPC)
[7] = dose: 100.0 mg/kg/injection, schedule: Q01DX001 (ip), vehicle: saline with Tween-80
[8] = dose: 60.0 mg/kg/injection, schedule: Q01DX005 (ip), vehicle: saline with Tween-80
[9] = dose: 120.0 mg/kg/injection, schedule: Q01DX005 (ip), vehicle: saline with Tween-80
[10] = dose: 240.0 mg/kg/injection, schedule: Q01DX005 (ip), vehicle: saline with Tween-80
[11] = dose: 12.5 mg/kg/injection, schedule: Q01DX009 (ip), vehicle: other
[12] = dose: 25.0 mg/kg/injection, schedule: Q01DX009 (ip), vehicle: other
[13] = dose: 50.0 mg/kg/injection, schedule: Q01DX009 (ip), vehicle: other
[14] = dose: 100.0 mg/kg/injection, schedule: Q01DX009 (ip), vehicle: other
[15] = dose: 50.0 mg/kg/injection, schedule: Q01DX009 (ip), vehicle: Klucel (hydroxypropylcellulose) (HPC)
[16] = dose: 100.0 mg/kg/injection, schedule: Q01DX009 (ip), vehicle: Klucel (hydroxypropylcellulose) (HPC)
[17] = dose: 200.0 mg/kg/injection, schedule: Q01DX009 (ip), vehicle: Klucel (hydroxypropylcellulose) (HPC)
[18] = dose: 50.0 mg/kg/injection, schedule: Q01DX009 (ip), vehicle: saline
[19] = dose: 100.0 mg/kg/injection, schedule: Q01DX009 (ip), vehicle: saline
[20] = dose: 25.0 mg/kg/injection, schedule: Q01DX009 (ip), vehicle: saline with Tween-80
[21] = dose: 50.0 mg/kg/injection, schedule: Q01DX009 (ip), vehicle: saline with Tween-80
[22] = dose: 100.0 mg/kg/injection, schedule: Q01DX009 (ip), vehicle: saline with Tween-80
[23] = dose: 200.0 mg/kg/injection, schedule: Q01DX009 (ip), vehicle: saline with Tween-80
[24] = dose: 25.0 mg/kg/injection, schedule: Q01DX005 (ip), vehicle: saline

Measured: T/C

N[C@H]1CC[C@@H](C(=O)O)C1
inactive: [1] 109 % of control | [2] 101 % of control | [3] 108 % of control

CN(C)c1ccc(C(=O)C2(O)CCCC(C)(C)C2)cc1 (stereo not drawn)
inactive: [4] 103 % of control | [5] 101 % of control | [6] 101 % of control

CCCCCCCCCCCCCCCC(=O)OC12CC(C)C3(O)C(C=C(CO)CC4(O)C(=O)C(C)=CC43)C1C2(C)CO (stereo not drawn)
inactive: dose: 0.03 mg/kg/injection, schedule: Q01DX009 (ip), vehicle: saline with Tween-80 119 % of control | dose: 0.06 mg/kg/injection, schedule: Q01DX009 (ip), vehicle: saline with Tween-80 100 % of control | dose: 0.9 micrograms/kg/injection, schedule: Q01DX009 (ip), vehicle: other 100 % of control | dose: 1.8 micrograms/kg/injection, schedule: Q01DX009 (ip), vehicle: other 99 % of control | dose: 3.7 micrograms/kg/injection, schedule: Q01DX009 (ip), vehicle: other 101 % of control | dose: 7.5 micrograms/kg/injection, schedule: Q01DX009 (ip), vehicle: other 101 % of control | dose: 15.0 micrograms/kg/injection, schedule: Q01DX009 (ip), vehicle: other 104 % of control | dose: 30.0 micrograms/kg/injection, schedule: Q01DX009 (ip), vehicle: other 104 % of control

CC1([P+](C)(C)C)C2C=CC1CC2 (stereo not drawn)
inactive: dose: 25.0 mg/kg/injection, schedule: Q01DX001 (ip), vehicle: saline 100 % of control | dose: 50.0 mg/kg/injection, schedule: Q01DX001 (ip), vehicle: saline 103 % of control | [7] 105 % of control | dose: 100.0 mg/kg/injection, schedule: Q01DX001 (ip), vehicle: saline 100 % of control

C=C(C)CBr
inactive: [8] 100 % of control | [9] 100 % of control | [10] 100 % of control

COC(=O)Nc1cnc(C(=O)O)c(C)c1-c1ccc(OC)c(OC)c1OCc1ccccc1
inactive: [11] 97 % of control | [12] 100 % of control | [13] 102 % of control | [14] 101 % of control | dose: 200.0 mg/kg/injection, schedule: Q01DX009 (ip), vehicle: other 103 % of control

O=S(=O)(CC(O)C(Cl)(Cl)Cl)N(Cc1ccccc1)Cc1ccccc1 (stereo not drawn)
inactive: [15] 103 % of control | [16] 103 % of control | [17] 97 % of control

COc1c2occc2c(NC(=O)C(Cl)Cl)c2ccc(=O)oc12
inactive: dose: 2.5 mg/kg/injection, schedule: Q04DX002 (ip), vehicle: saline with Tween-80 101 % of control | dose: 5.0 mg/kg/injection, schedule: Q04DX002 (ip), vehicle: saline with Tween-80 100 % of control | dose: 10.0 mg/kg/injection, schedule: Q04DX002 (ip), vehicle: saline with Tween-80 99 % of control

CONc1ccn(C2OC(CO)C(O)C2O)c(=O)n1 (stereo not drawn)
inactive: dose: 12.5 mg/kg/injection, schedule: Q01DX009 (ip), vehicle: saline 101 % of control and 104 % of control | dose: 25.0 mg/kg/injection, schedule: Q01DX009 (ip), vehicle: saline 112 % of control and 117 % of control | [18] 99 % of control and 113 % of control | [19] 112 % of control

CCSC(=S)NC#N
inactive: [15] 109 % of control | [16] 93 % of control | [17] 88 % of control

CCN(CC)Cc1cc(N=Nc2ccc(N(C)C)cc2)ccc1O
inactive: [7] 88 % of control | dose: 200.0 mg/kg/injection, schedule: Q01DX001 (ip), vehicle: saline with Tween-80 88 % of control

O=[N+]([O-])c1ccc(Sc2ccncn2)c([N+](=O)[O-])c1
inactive: dose: 12.5 mg/kg/injection, schedule: Q01DX009 (ip), vehicle: saline with Tween-80 91 % of control | [20] 116 % of control | [21] 123 % of control | [22] 116 % of control

CC(/C=C/c1ccco1)=N\NC(=S)Nc1ccc(Cl)cc1
inactive: [4] 91 % of control | [5] 100 % of control | [6] 100 % of control

c1ccc(-n2ncc3ccc4cccn4c32)cc1
inactive: [8] 108 % of control | [9] 111 % of control | [10] 120 % of control

Cc1nc2n(c1C(N)=O)CCS2
inactive: dose: 50.0 mg/kg/injection, schedule: Q01DX001 (ip), vehicle: Klucel (hydroxypropylcellulose) (HPC) 101 % of control | dose: 60.0 mg/kg/injection, schedule: Q01DX005 (ip), vehicle: Klucel (hydroxypropylcellulose) (HPC) 96 % of control | [4] 106 % of control | dose: 100.0 mg/kg/injection, schedule: Q04DX002 (ip), vehicle: Klucel (hydroxypropylcellulose) (HPC) 102 % of control | dose: 120.0 mg/kg/injection, schedule: Q01DX005 (ip), vehicle: Klucel (hydroxypropylcellulose) (HPC) 98 % of control | [5] 99 % of control | dose: 200.0 mg/kg/injection, schedule: Q04DX002 (ip), vehicle: Klucel (hydroxypropylcellulose) (HPC) 104 % of control | dose: 240.0 mg/kg/injection, schedule: Q01DX005 (ip), vehicle: Klucel (hydroxypropylcellulose) (HPC) 94 % of control

O=C(O)CSc1ncccc1Nc1ccc([N+](=O)[O-])cn1
inactive: [18] 102 % of control | [19] 86 % of control

CCOC(=O)C(=Cc1ccccc1Cl)C(=O)OCC
inactive: [20] 100 % of control and 111 % of control | [21] 110 % of control | [22] 102 % of control and 120 % of control | [23] 116 % of control

NC(N)=NS(=O)(=O)c1ccc(N=NC2C(=O)N(c3ccc(Cl)cc3)C(=S)N(c3ccc(Cl)cc3)C2=O)cc1
inactive: [24] 103 % of control | [1] 106 % of control and 117 % of control | [2] 104 % of control and 124 % of control | [3] 108 % of control

C[N+](C)([O-])CC1CC=CCC1C[N+](C)(C)[O-] (stereo not drawn)
inactive: [24] 99 % of control | [1] 106 % of control | [2] 91 % of control

OC1(CC2CO2)CCCc2ccccc21 (stereo not drawn)
inactive: [15] 93 % of control | [16] 91 % of control | [17] 93 % of control

C/C(=C\C(=O)c1ccccc1)N1CCN(c2ccc(F)cc2)CC1
inactive: dose: 50.0 mg/kg/injection, schedule: Q01DX005 (ip), vehicle: Klucel (hydroxypropylcellulose) (HPC) 102 % of control | dose: 100.0 mg/kg/injection, schedule: Q01DX005 (ip), vehicle: Klucel (hydroxypropylcellulose) (HPC) 105 % of control | dose: 200.0 mg/kg/injection, schedule: Q01DX005 (ip), vehicle: Klucel (hydroxypropylcellulose) (HPC) 96 % of control

CCOc1c(N=Nc2ccc(OC)cc2)c(-c2ccccc2)nn1C(=S)S
inactive: dose: 50.0 mg/kg/injection, schedule: Q01DX005 (ip), vehicle: saline with Tween-80 102 % of control | dose: 100.0 mg/kg/injection, schedule: Q01DX005 (ip), vehicle: saline with Tween-80 103 % of control | dose: 200.0 mg/kg/injection, schedule: Q01DX005 (ip), vehicle: saline with Tween-80 102 % of control

CCN(C)c1cc(=O)c2c(ccc3ccccc32)o1
inactive: [21] 94 % of control | [22] 101 % of control | [23] 95 % of control

CCOC(=O)Nc1cc(Cl)c2nnn(C(=O)OCC)c2n1
inactive: dose: 6.25 mg/kg/injection, schedule: Q01DX009 (ip), vehicle: other 105 % of control | dose: 11.0 mg/kg/injection, schedule: Q01DX009 (ip), vehicle: other 103 % of control | [11] 115 % of control | dose: 16.5 mg/kg/injection, schedule: Q01DX009 (ip), vehicle: other 106 % of control | [12] 106 % of control | dose: 37.5 mg/kg/injection, schedule: Q01DX009 (ip), vehicle: other 112 % of control | [13] 122 % of control | [14] 115 % of control

C[CH2][Sn]([CH2]C)([n]1cnc2ccccc21)[n]1cnc2ccccc21
inactive: dose: 1.56 mg/kg/injection, schedule: Q01DX005 (ip), vehicle: Klucel (hydroxypropylcellulose) (HPC) 120 % of control | dose: 3.12 mg/kg/injection, schedule: Q01DX005 (ip), vehicle: Klucel (hydroxypropylcellulose) (HPC) 123 % of control | dose: 6.25 mg/kg/injection, schedule: Q01DX005 (ip), vehicle: Klucel (hydroxypropylcellulose) (HPC) 109 % of control and 122 % of control

CC(C)(C)C(=O)CC(Cc1nccc2ccccc12)c1ccco1 (stereo not drawn)
inactive: [21] 113 % of control | [22] 106 % of control | [23] 97 % of control
